What follows are compounds tested against T1, GABAB receptor (Rattus norvegicus, UniProt O88871+Q9Z0U4) (assay: In vitro [35S]GTPγS binding assay in rat cortical membranes). Conditions: PAM EC50, [35S]GTPγS binding, read-out: In vitro PAM potency.
T1 construct: from tissue; host or cells: rat brain cortex membranes
Assay type: biochemical
Description: In Vitro [^35S]GTPγS Binding Assay in Rat Cortical Membranes
Cortices of freshly harvested rat brains were dissected on an ice-cold surface and homogenized by a glass Dounce homogeniser immediately in ice-cold buffer containing 50 mM Tris, 5 mM MgCl2 and 1 mM EDTA (pH=7.6). Tissue homogenates were centrifuged at 40000 g for 15 min at 4° C. Membrane pellets were resuspended in the same buffer and membranes were incubated for 10 min at 30° C. in a shaking water bath to eliminate endogenous GABA. Homogenates were centrifuged again under the same conditions. The final pellets were resuspended in ice-cold buffer (pH=7.6) containing 50 mM Tris, 100 mM NaCl, 7 mM MgCl2, 1 mM EDTA and 1 mM dithiotreithol (DTT) to yield a concentration of 20 mg tissue weight/ml and frozen at −70° C. until use. The assay was done in a buffer containing 50 mM Tris (pH=7.4), 100 mM NaCl, 7 mM MgCl2, 1 mM EDTA and 1 mM DTT. Each assay tube contained 150 μL GDP (in a final concentration of 50 μM), 100 μL ligand and 125 μL of the membrane suspension ([…]). The assay tubes were preincubated for 10 min at 30° C. to assure equilibrium. Nonspecific binding was determined in the presence of 10 μM GTPγS; basal binding was determined in the presence of buffer only. After addition of […] [^35S]GTPγS in a volume of 25 μL to the tubes, membranes were incubated for an additional 60 min at 30° C. The assay was terminated by rapid filtration through Packard UniFilter GF/B using a Packard harvester and washed four times with 1 ml ice-cold buffer. After drying the filters at 40° C. for 1 h, 40 μL Microscint (Packard) was added to the filters and radioactivity of the filters was determined by a TopCount NXT (PerkinElmer, Waltham, MA; Alper and Nelson, Eur. J. Pharmacol. 1998, 343, 303-312; Rinken et al, Biochem. Pharmacol. 1999, 57, 155-162). Data thus gathered were used to determine PAM EC50 values for each compound as primary in vitro activity end point.
In Table 1 compounds of this invention measured in the [^35S]GTPγS binding assay are listed.

T1 sequence (O88871 41-940): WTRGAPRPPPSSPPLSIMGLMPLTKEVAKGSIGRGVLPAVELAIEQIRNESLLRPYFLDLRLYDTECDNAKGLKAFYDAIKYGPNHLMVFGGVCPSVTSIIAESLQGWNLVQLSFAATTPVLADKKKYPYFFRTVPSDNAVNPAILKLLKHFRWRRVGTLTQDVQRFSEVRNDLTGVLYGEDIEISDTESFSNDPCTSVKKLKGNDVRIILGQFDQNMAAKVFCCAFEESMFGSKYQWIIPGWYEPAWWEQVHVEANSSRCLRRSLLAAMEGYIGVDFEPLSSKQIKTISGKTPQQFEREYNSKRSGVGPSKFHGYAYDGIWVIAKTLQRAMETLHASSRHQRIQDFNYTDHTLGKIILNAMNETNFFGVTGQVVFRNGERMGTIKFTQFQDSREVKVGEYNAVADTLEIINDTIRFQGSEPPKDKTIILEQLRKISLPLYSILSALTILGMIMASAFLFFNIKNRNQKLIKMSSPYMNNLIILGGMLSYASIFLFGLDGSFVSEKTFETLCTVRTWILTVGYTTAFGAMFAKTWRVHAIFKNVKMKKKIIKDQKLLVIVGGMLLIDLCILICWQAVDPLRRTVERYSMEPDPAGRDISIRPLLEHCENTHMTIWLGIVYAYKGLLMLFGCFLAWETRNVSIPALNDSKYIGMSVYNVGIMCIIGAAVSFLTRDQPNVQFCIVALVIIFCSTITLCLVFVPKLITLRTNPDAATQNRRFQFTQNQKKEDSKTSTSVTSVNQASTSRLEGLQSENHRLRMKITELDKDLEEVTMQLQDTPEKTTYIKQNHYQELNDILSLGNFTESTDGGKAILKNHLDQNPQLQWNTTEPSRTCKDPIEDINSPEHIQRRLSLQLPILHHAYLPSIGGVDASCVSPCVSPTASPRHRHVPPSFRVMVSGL
T1 sequence (Q9Z0U4 17-960 limits assumed): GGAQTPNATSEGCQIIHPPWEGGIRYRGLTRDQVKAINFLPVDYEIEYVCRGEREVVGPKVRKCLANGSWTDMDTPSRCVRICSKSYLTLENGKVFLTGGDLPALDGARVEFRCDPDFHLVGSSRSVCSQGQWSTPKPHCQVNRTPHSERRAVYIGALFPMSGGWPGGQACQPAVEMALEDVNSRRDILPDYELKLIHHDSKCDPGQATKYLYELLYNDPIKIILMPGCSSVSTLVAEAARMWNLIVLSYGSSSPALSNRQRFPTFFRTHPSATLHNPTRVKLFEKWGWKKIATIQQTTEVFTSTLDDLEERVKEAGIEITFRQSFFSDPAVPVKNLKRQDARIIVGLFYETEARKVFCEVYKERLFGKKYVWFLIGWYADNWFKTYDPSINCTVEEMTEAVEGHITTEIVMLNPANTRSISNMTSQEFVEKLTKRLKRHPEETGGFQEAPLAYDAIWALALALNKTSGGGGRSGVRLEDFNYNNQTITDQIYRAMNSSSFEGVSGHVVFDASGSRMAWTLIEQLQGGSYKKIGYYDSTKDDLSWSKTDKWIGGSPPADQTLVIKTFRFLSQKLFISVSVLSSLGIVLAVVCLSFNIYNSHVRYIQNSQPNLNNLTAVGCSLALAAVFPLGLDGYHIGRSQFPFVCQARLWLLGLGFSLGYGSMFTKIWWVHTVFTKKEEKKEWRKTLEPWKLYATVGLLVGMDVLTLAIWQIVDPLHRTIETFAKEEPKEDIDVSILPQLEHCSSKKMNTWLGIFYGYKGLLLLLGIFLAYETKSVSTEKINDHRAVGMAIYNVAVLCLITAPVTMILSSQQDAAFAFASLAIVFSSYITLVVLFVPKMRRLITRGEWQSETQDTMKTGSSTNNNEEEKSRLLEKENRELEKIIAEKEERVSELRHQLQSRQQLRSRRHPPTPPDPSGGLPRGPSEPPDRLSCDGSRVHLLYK

Row | Compound | EC50 [nM]
1 | 2-[(3R)-3-{5,6-dimethyl-2-[trans-4-(trifluoromethyl)cyclohexyl]pyrazolo[1,5-a]pyrimidin-7-yl}-3-methylpiperidin-1-yl]acetic acid hydrochloride [Example 19] | 100 to 1000
2 | Cc1cc([C@@H]2CN(C(=O)N(C)C)CC[C@@H]2C)n2nc([C@H]3CC[C@H](C(F)(F)F)CC3)c(F)c2n1 (racemic) [Example 46] | 100 to 1000
3 | CC(=O)N1CC[C@H](C)[C@H](c2c(C)c(C)nc3cc([C@H]4CC[C@H](C(F)(F)F)CC4)nn23)C1 (racemic) [Example 55] | 100 to 1000
4 | Cc1nc2cc([C@H]3CC[C@H](C(F)(F)F)CC3)nn2c([C@@H]2CN(C)CC[C@@H]2C)c1C (racemic) [Example 56] | 1000 to 10000
5 | Cc1nc2cc([C@H]3CC[C@H](C(F)(F)F)CC3)nn2c([C@@H]2CN(C(=N)N)CC[C@@H]2C)c1C (racemic) [Example 57] | 100 to 1000
6 | Cc1cc([C@H]2C[C@@H](C)CN(C=O)C2)n2nc([C@H]3CC[C@H](C(F)(F)F)CC3)cc2n1 (racemic) [Example 104] | 100 to 1000
7 | Cc1cc(C2CCCOC2)n2nc([C@H]3CC[C@H](C(F)(F)F)CC3)cc2n1 (mixture of isomers) [Example 161] | 100 to 1000
8 | CC(=O)N1CCC(C)C(c2cc(C)nc3c(F)c(C4CCC(C(F)(F)F)CC4)nn23)C1 (single isomer, unassigned) [Example 2] | 100 to 1000
9 | CC(=O)N1CC[C@@H](C)[C@@H](c2cc(C)nc3c(F)c([C@H]4CC[C@H](C(F)(F)F)CC4)nn23)C1 (single isomer, unassigned) [Example 3] | 1000 to 10000
10 | Cc1cc([C@@H]2CN(C=O)C(C)(C)CO2)n2nc([C@H]3CC[C@H](C(F)(F)F)CC3)cc2n1 (single isomer, unassigned) [Example 10] | 1000 to 10000
11 | COC(=O)N1C[C@@H](c2cc(C)nc3cc([C@H]4CC[C@H](C(F)(F)F)CC4)nn23)OCC1(C)C (single isomer, unassigned) [Example 12] | 1000 to 10000
12 | Cc1cc([C@H]2CCCOC2)n2nc([C@H]3CC[C@H](C(F)(F)F)CC3)cc2n1 (single isomer, unassigned) [Example 28] | < 100
13 | Cc1cc([C@@H]2CCCOC2)n2nc([C@H]3CC[C@H](C(F)(F)F)CC3)cc2n1 (single isomer, unassigned) [Example 29] | 100 to 1000

Next, values leading:

Row | EC50 [nM] | Compound
14 | 100 to 1000 | COC(=O)N1CC[C@H](C)[C@H](c2cc(C)nc3cc([C@H]4CC[C@H](C(F)(F)F)CC4)nn23)C1 (racemic) [Example 76]
15 | 100 to 1000 | Cc1cc([C@H]2CCCN(C=O)[C@H]2C)n2nc([C@H]3CC[C@H](C(F)(F)F)CC3)cc2n1 (racemic) [Example 81]
16 | 100 to 1000 | Cc1cc([C@@H]2CN(S(C)(=O)=O)CC[C@@H]2C)n2nc([C@H]3CC[C@H](C(F)(F)F)CC3)cc2n1 (racemic) [Example 85]
17 | < 100 | COC(=O)N1CCC[C@H](c2cc(C)nc3cc([C@H]4CC[C@H](C(F)(F)F)CC4)nn23)[C@H]1C (racemic) [Example 92]
18 | 100 to 1000 | COC(=O)N1CC[C@H](C)[C@@H](c2cc(C)nc3cc([C@H]4CC[C@H](C(F)(F)F)CC4)nn23)C1 (racemic) [Example 159]
19 | 100 to 1000 | Cc1cc([C@@H]2CN(C=O)CC[C@@H]2C)n2nc([C@H]3CC[C@H](C(F)(F)F)CC3)cc2n1 (racemic) [Example 160]
20 | 100 to 1000 | COC(=O)N1CC[C@H](C)[C@@H](c2cc(C)nc3cc([C@H]4CC[C@H](C(F)(F)F)CC4)nn23)C1 (single isomer, unassigned) [Example 4]
21 | 100 to 1000 | COC(=O)N1CC[C@H](C)[C@H](c2cc(C)nc3cc([C@H]4CC[C@H](C(F)(F)F)CC4)nn23)C1 (single isomer, unassigned) [Example 6]
22 | 100 to 1000 | COC(=O)N1CC[C@@H](C)[C@@H](c2cc(C)nc3cc([C@H]4CC[C@H](C(F)(F)F)CC4)nn23)C1 (single isomer, unassigned) [Example 7]
23 | 1000 to 10000 | Cc1cc([C@@H]2CN(C=O)CC[C@@H]2C)n2nc([C@H]3CC[C@H](C(F)(F)F)CC3)cc2n1 (single isomer, unassigned) [Example 8]
